One may read the IC50 as the concentration needed to halve the response being measured. Read a low IC50 as inhibition by little substance.

For experiment [1], the species on record is Rattus norvegicus. The experiment is described as follows: Compound was tested for the vasorelaxation in rat aorta rings pre-contracted with noradrenaline (NA) 10 uM. Type of experiment: functional, organism-based.
The species named for experiment [2] is Rattus norvegicus. The experiment is described as follows: Antagonist PD'2 which is the negative logarithm of the molar concentration of antagonist required to cause 50% depression of the maximal response of the agonist was determined. The format is functional.
The species entered for experiment [3] is Rattus norvegicus. The experiment is described as follows: Compound was tested for the vasorelaxation in rat aorta rings pre-contracted with KCl 60 mM. Type of experiment: functional, organism-based.
The species named for experiment [4] is Rattus norvegicus. The experiment is described as follows: Effect on concentration dependent contractions in rat aortic rings expressed as pD2 value. The format is functional, Aorta.

Where only a bound is given, the exact number is not on record here.

On to `Cc1coc2cc3oc(=O)cc(CO)c3cc12`, for which the IC50 was 68.4 µM in the experiment listed under Rattus norvegicus [1] and 54 µM in the experiment filed under Rattus norvegicus [3]. The “PD'2” value in the experiment filed under Rattus norvegicus [2] was 4.73.

In the case of `COc1c(O)ccc2c(CO)cc(=O)oc12`, the values for the IC50 in the experiment filed under Rattus norvegicus [1] and in the experiment listed under Rattus norvegicus [3] were 933 µM and 1010 µM, respectively. Moreover, the “PD'2” value in the experiment filed under Rattus norvegicus [2] was found to be 2.57.

In the case of `CC(=O)COc1c2occ(C)c2cc2c(CO)cc(=O)oc12`, the IC50 was found to be 52.6 µM in the experiment filed under Rattus norvegicus [1] and 93.3 µM in the experiment filed under Rattus norvegicus [3].

On to `COc1c2occ(C)c2cc2c(CO)cc(=O)oc12`, for which the IC50 in the experiment filed under Rattus norvegicus [1] stood at 42 µM; in the experiment filed under Rattus norvegicus [3], 42.6 µM.

`CC(=O)COc1ccc2c(CO)cc(=O)oc2c1OCC(C)=O`: the half-inhibitory concentration (IC50) in the experiment listed under Rattus norvegicus [1] and in the experiment filed under Rattus norvegicus [3] was over 1000 µM in each case.

For the compound `CCOC(=O)COc1ccc2c(C)c(CCN(CC)CC)c(=O)oc2c1` [CHROMONAR], the IC50 in the experiment listed under Rattus norvegicus [1] and in the experiment filed under Rattus norvegicus [3] was over 1000 µM throughout.

Take `COc1c2occc2c(OC)c2c(=O)cc(C)oc12` [KHELLIN]: the IC50 in the experiment filed under Rattus norvegicus [1] amounted to 309 µM; in the experiment listed under Rattus norvegicus [3] it was 316 µM. Further, the “PD'2” value in the experiment listed under Rattus norvegicus [2] stood at 4.46.

In the experiment listed under Rattus norvegicus [4], `NC[C@H](O)c1ccc(O)c(O)c1` [NOREPINEPHRINE] registered a pD2 of 6.07.

The values above are taken from ChEMBL document CHEMBL1135963, “Synthesis and vasorelaxant activity of new coumarin and furocoumarin derivatives” (Bioorg Med Chem Lett, 2002).
